Results: publication PMC9288506, “Compounds activating VCP D1 ATPase enhance both autophagic and proteasomal neurotoxic protein clearance” (Nature Communications, 2022)

Experiments:
Assay in all cases: biochemical
Design in all cases: Thermo Fisher in vitro kinase panel, per cent inhibition of kinase activity at 10 uM
[1] = target: PTK2 (FAK) (Homo sapiens, UniProt Q05397)
Experimental: (§1) Kinase profiling of SMER28 and analogs SMER28 and analogs were tested at 10 µM in a panel of 123 kinases at ThermoFisher Scientific. Follow-up of selected kinases for SMER28 and analogs was also performed at ThermoFisher Scientific. Data are shown in Supplementary Data 2 and 3. […] An inhibition of PIK3C could induce autophagy, mediated by signaling through the AKT/mTOR axis[45].

[2] = target: BMX (Homo sapiens, UniProt P51813)
Experimental: as §1

[3] = target: CDK9/cyclin T1 (Homo sapiens, UniProt P50750)
Experimental: as §1

[4] = target: CSNK1G1 (CK1 gamma 1) (Homo sapiens, UniProt Q9HCP0)
Experimental: as §1

[5] = target: KIT (Homo sapiens, UniProt P10721)
Experimental: as §1

[6] = target: GSK3A (GSK3 alpha) (Homo sapiens, UniProt P49840)
Experimental: as §1

[7] = target: FLT3 (Homo sapiens, UniProt P36888)
FLT3, sequence (P36888 whole entry): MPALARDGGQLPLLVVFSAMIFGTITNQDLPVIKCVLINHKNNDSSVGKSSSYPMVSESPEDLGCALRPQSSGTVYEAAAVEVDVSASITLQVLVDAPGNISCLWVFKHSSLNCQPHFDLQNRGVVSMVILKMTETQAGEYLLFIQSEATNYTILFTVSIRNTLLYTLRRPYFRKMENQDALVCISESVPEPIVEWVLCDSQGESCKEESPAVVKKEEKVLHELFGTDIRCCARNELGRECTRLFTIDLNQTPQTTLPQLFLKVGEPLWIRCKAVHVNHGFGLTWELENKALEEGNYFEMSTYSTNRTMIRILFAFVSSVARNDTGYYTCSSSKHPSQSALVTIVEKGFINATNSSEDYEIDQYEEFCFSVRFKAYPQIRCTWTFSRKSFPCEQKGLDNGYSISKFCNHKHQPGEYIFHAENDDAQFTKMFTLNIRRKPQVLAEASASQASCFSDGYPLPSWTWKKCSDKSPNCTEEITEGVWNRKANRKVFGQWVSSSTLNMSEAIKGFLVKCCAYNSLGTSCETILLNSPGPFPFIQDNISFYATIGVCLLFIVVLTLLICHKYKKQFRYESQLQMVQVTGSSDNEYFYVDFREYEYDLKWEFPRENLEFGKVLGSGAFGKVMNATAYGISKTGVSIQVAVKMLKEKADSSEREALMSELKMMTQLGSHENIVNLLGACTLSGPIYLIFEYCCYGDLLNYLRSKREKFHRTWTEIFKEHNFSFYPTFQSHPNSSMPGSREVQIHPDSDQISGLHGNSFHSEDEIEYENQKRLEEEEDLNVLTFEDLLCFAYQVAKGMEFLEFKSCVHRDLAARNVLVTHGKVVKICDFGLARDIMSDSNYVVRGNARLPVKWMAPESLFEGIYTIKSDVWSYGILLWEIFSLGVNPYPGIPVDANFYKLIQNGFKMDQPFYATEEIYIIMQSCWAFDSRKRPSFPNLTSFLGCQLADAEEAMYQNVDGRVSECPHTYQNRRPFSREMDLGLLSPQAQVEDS
Experimental: as §1

[8] = target: EPHB1 (Homo sapiens, UniProt P54762)
Experimental: as §1

[9] = target: ABL2 (Arg) (Homo sapiens, UniProt P42684)
ABL2 (Arg), sequence (P42684 whole entry): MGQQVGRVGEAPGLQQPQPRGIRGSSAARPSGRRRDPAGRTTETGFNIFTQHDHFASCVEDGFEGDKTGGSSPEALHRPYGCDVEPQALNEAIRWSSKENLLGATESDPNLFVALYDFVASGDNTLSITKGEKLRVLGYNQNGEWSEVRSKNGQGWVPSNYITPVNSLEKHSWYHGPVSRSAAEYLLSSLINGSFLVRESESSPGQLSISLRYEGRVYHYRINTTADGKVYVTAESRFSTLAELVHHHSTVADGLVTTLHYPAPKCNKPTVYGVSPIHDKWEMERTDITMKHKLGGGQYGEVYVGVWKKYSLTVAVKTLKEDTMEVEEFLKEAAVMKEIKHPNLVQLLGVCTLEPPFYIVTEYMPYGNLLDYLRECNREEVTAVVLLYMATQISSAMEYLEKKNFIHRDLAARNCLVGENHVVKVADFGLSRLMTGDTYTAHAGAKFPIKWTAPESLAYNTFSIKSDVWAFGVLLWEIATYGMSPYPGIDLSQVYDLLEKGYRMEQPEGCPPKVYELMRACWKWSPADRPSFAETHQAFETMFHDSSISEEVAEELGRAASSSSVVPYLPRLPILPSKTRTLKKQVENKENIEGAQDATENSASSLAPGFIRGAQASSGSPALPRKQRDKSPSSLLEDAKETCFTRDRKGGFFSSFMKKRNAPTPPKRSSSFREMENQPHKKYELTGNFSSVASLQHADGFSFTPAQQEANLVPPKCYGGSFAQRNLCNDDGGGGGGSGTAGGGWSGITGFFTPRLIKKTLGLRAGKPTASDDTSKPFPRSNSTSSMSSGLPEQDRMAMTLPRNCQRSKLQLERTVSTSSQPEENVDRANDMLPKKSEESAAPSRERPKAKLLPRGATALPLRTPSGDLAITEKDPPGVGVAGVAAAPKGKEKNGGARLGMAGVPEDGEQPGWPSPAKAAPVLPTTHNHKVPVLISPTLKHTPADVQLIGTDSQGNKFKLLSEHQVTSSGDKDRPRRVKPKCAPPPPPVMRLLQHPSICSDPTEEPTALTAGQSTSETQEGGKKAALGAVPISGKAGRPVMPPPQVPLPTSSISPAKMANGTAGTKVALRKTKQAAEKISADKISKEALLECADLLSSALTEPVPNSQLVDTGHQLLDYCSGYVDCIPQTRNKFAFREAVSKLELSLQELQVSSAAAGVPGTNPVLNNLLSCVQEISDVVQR
Experimental: as §1

[10] = target: IKBKB (IKK beta) (Homo sapiens, UniProt O14920)
Experimental: as §1

[11] = target: PTK6 (Brk) (Homo sapiens, UniProt Q13882)
Experimental: as §1

[12] = target: ROCK2 (Homo sapiens, UniProt O75116)
Experimental: as §1

[13] = target: CSF1R (FMS) (Homo sapiens, UniProt P07333)
CSF1R (FMS), sequence (P07333 whole entry): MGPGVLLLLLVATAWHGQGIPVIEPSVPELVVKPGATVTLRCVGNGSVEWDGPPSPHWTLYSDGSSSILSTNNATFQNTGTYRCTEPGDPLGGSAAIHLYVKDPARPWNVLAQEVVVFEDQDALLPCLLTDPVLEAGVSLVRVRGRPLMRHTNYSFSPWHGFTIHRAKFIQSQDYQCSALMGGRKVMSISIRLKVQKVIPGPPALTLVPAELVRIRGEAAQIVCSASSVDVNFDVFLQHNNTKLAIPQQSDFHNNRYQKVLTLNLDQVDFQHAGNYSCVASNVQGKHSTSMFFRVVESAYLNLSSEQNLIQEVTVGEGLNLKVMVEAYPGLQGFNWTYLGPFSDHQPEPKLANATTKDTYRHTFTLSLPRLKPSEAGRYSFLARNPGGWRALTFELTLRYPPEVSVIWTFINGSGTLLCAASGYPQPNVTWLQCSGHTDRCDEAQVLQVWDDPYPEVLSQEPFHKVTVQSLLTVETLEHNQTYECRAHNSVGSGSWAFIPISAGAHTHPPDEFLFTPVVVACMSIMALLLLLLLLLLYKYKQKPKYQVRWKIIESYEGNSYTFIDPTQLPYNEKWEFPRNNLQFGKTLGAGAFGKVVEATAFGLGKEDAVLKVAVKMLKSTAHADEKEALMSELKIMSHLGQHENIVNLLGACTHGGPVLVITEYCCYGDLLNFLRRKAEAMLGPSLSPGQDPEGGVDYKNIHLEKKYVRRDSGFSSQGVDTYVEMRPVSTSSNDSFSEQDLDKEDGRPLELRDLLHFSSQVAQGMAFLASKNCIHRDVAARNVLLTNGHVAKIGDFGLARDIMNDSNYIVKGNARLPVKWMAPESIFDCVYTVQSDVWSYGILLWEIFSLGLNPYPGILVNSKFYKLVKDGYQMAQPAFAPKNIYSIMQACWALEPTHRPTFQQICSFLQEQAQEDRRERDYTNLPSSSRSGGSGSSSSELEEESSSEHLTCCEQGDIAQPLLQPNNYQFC
Experimental: as §1

[14] = target: ERBB4 (HER4) (Homo sapiens, UniProt Q15303)
Experimental: as §1

[15] = target: EPHB4 (Homo sapiens, UniProt P54760)
Experimental: as §1

[16] = target: FGFR4 (Homo sapiens, UniProt P22455)
Experimental: as §1

[17] = target: IGF1R (Homo sapiens, UniProt P08069)
Experimental: as §1

[18] = target: CSNK2A2 (CK2 alpha 2) (Homo sapiens, UniProt P19784)
Experimental: as §1

[19] = target: PLK1 (Homo sapiens, UniProt P53350)
Experimental: as §1

[20] = target: INSRR (IRR) (Homo sapiens, UniProt P14616)
INSRR (IRR), sequence (P14616 whole entry): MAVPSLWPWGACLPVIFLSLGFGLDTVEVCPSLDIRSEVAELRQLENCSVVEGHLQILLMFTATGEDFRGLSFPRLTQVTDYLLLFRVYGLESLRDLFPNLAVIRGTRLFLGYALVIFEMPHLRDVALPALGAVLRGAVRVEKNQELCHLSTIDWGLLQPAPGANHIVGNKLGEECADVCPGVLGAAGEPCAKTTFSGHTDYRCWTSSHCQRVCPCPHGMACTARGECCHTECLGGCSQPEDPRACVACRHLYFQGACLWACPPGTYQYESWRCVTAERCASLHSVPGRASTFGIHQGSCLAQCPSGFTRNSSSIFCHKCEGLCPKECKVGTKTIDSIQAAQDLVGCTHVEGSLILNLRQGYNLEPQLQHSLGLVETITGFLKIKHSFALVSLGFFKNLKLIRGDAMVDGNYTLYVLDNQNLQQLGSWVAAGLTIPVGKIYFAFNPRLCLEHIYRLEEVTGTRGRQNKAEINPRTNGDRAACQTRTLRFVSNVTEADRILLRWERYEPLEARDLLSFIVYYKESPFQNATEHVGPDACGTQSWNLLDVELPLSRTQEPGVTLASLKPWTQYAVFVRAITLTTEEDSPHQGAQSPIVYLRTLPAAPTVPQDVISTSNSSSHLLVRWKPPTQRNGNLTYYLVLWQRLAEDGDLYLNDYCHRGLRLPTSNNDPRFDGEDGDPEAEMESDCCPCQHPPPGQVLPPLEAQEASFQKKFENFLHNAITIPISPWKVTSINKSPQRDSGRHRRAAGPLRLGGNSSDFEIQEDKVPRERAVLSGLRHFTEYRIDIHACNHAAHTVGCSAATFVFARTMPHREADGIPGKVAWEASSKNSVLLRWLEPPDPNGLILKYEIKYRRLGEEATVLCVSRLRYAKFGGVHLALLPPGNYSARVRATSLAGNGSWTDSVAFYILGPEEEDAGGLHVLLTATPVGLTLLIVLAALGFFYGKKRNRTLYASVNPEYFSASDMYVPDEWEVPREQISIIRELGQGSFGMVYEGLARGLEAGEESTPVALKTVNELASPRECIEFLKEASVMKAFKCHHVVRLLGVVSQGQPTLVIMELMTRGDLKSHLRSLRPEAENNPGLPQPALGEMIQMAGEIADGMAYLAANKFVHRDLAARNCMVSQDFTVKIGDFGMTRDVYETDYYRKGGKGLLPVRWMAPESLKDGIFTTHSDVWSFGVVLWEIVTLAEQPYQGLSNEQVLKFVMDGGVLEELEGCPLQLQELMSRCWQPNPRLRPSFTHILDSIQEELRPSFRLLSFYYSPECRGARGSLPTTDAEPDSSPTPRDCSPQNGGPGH
Experimental: as §1

[21] = target: DYRK2 (Homo sapiens, UniProt Q92630)
Experimental: as §1

[22] = target: GSK3B (GSK3 beta) (Homo sapiens, UniProt P49841)
Experimental: as §1

[23] = target: AKT1 (PKB alpha) (Homo sapiens, UniProt P31749)
Experimental: as §1

[24] = target: MKNK2 (MNK2) (Homo sapiens, UniProt Q9HBH9)
MKNK2 (MNK2), sequence (Q9HBH9 whole entry): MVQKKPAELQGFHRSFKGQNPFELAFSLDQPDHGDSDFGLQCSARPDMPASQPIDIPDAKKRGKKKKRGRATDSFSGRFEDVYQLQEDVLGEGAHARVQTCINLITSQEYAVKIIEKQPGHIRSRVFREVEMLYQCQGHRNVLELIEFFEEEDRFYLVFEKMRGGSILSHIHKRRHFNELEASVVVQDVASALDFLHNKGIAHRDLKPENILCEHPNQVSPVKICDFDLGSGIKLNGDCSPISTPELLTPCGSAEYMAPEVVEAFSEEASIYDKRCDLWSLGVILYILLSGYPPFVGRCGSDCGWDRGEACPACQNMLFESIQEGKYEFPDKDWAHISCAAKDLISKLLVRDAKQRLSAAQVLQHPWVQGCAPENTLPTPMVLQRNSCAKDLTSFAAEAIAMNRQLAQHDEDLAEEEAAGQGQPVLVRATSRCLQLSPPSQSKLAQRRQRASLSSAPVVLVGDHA
Experimental: as §1

[25] = target: CHEK1 (CHK1) (Homo sapiens, UniProt O14757)
Experimental: as §1

[26] = target: NEK2 (Homo sapiens, UniProt P51955)
Experimental: as §1

Work on C=CCNc1ncnc2ccc(Br)cc12 [SMER28] yielded an inhibition at 10 µM [1] of 8%, an inhibition at 10 µM [2] of 11% and an inhibition at 10 µM [3] of 40%. The inhibition at 10 µM [4] was 31%, the inhibition at 10 µM [5] was 25% and the inhibition at 10 µM [6] was 23%. The inhibition at 10 µM [7] was 40%, the inhibition at 10 µM [8] was 6% and the inhibition at 10 µM [9] was 3%. For the same compound, the inhibition at 10 µM [10] was 17%, the inhibition at 10 µM [11] was 0% and the inhibition at 10 µM [12] was -5%. The inhibition at 10 µM [13] was 39%, the inhibition at 10 µM [14] was 10% and the inhibition at 10 µM [15] was -1%. For the same compound, the inhibition at 10 µM [16] was 7%, the inhibition at 10 µM [17] was 12% and the inhibition at 10 µM [18] was 10%. For the same compound, the inhibition at 10 µM [19] was 11%, the inhibition at 10 µM [20] was 5% and the inhibition at 10 µM [21] was 67%. For the same compound, the inhibition at 10 µM [22] was 24%, the inhibition at 10 µM [23] was 3% and the inhibition at 10 µM [24] was 32%. The inhibition at 10 µM [25] was -8% and the inhibition at 10 µM [26] was -1%.
